The compounds below were run on HEK293 cells (assay: Preliminary screening as mRNA vectors, EGFP mRNA transfection of HEK293 cells). Conditions: EGFP mRNA 50 ng per well, 96-well plates; percentage of GFP fluorescent cells relative to total number of cells (Hoechst).
Assay type: cell-based
In short: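 Screening format: EGFP mRNA transfection (50 ng/well) into HEK293 in 10% FBS-supplemented DMEM. Percent green fluorescent cells, normalised to Hoechst nuclear count, gave the value; Lipofectamine2000 was the reference transfectant.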

| Structure (SMILES) | Absolute mRNA transfection efficiency in HEK293 cells [%] |
| --- | --- |
| CCCCCCCCCCCCCCCCCCNc1nc(NCCN(CC)CC)nc(SCCCCCCCCCCCCCCCCCC)n1 [Compound D7S18N18] | 0.0 |
| CCCCCCNc1nc(NCCCN2CCOCC2)nc(SCCCCCC)n1 [Compound D8S6N6] | 0.0 |
| CCCCCCCNc1nc(NCCCN2CCOCC2)nc(SCCCCCC)n1 [Compound D8S6N7] | 0.4 |
| CCCCCCCCNc1nc(NCCCN2CCOCC2)nc(SCCCCCC)n1 [Compound D8S6N8] | 0.2 |
| CCCCCCCCCNc1nc(NCCCN2CCOCC2)nc(SCCCCCC)n1 [Compound D8S6N9] | 1.2 |
| CCCCCCCCCCCNc1nc(NCCCN2CCOCC2)nc(SCCCCCC)n1 [Compound D8S6N11] | 1.1 |
| CCCCCCCCCCCCNc1nc(NCCCN2CCOCC2)nc(SCCCCCC)n1 [Compound D8S6N12] | 2.0 |
| CCCCCCCCCCCCCNc1nc(NCCCN2CCOCC2)nc(SCCCCCC)n1 [Compound D8S6N13] | 0.0 |
| CCCCCCCCCCCCCCCNc1nc(NCCCN2CCOCC2)nc(SCCCCCC)n1 [Compound D8S6N15] | 0.1 |
| CCCCCCCCCCCCCCCCNc1nc(NCCCN2CCOCC2)nc(SCCCCCC)n1 [Compound D8S6N16] | 0.6 |
| CCCCCCCCCCCCCCCCCCNc1nc(NCCCN2CCOCC2)nc(SCCCCCC)n1 [Compound D8S6N18] | 0.7 |
| CCCCCCSc1nc(NCCCN2CCOCC2)nc(SCCCCCC)n1 [Compound D8S6S6] | 0.0 |
| CCCCCCCSc1nc(NCCCN2CCOCC2)nc(SCCCCCC)n1 [Compound D8S6S7] | 1.5 |
| CCCCCCCCSc1nc(NCCCN2CCOCC2)nc(SCCCCCC)n1 [Compound D8S6S8] | 0.2 |
| CCCCCCCCCSc1nc(NCCCN2CCOCC2)nc(SCCCCCC)n1 [Compound D8S6S9] | 5.0 |
| CCCCCCCCCCSc1nc(NCCCN2CCOCC2)nc(SCCCCCC)n1 [Compound D8S6S10] | 4.2 |
| CCCCCCCCCCCSc1nc(NCCCN2CCOCC2)nc(SCCCCCC)n1 [Compound D8S6S11] | 1.5 |
| CCCCCCCCCCCCSc1nc(NCCCN2CCOCC2)nc(SCCCCCC)n1 [Compound D8S6S12] | 11.1 |
| CCCCCCCCCCCCCCSc1nc(NCCCN2CCOCC2)nc(SCCCCCC)n1 [Compound D8S6S14] | 6.8 |
| CCCCCCCCCCCCCCCSc1nc(NCCCN2CCOCC2)nc(SCCCCCC)n1 [Compound D8S6S15] | 2.8 |
| CCCCCCCCCCCCCCCCSc1nc(NCCCN2CCOCC2)nc(SCCCCCC)n1 [Compound D8S6S16] | 43.1 |
| CCCCCCCCCCCCCCCCCCSc1nc(NCCCN2CCOCC2)nc(SCCCCCC)n1 [Compound D8S6S18] | 12.6 |
| CCCCCCCSc1nc(NCCCCCC)nc(NCCCN2CCOCC2)n1 [Compound D8S7N6] | 1.8 |
| CCCCCCCNc1nc(NCCCN2CCOCC2)nc(SCCCCCCC)n1 [Compound D8S7N7] | 1.4 |

| Structure (SMILES) | Absolute mRNA transfection efficiency in HEK293 cells [%] |
| --- | --- |
| CCCCCCCCNc1nc(NCCCN2CCOCC2)nc(SCCCCCCC)n1 [Compound D8S7N8] | 1.8 |
| CCCCCCCCCNc1nc(NCCCN2CCOCC2)nc(SCCCCCCC)n1 [Compound D8S7N9] | 10.6 |
| CCCCCCCCCCCNc1nc(NCCCN2CCOCC2)nc(SCCCCCCC)n1 [Compound D8S7N11] | 20.1 |
| CCCCCCCCCCCCNc1nc(NCCCN2CCOCC2)nc(SCCCCCCC)n1 [Compound D8S7N12] | 2.3 |
| CCCCCCCCCCCCCNc1nc(NCCCN2CCOCC2)nc(SCCCCCCC)n1 [Compound D8S7N13] | 5.8 |
| CCCCCCCCCCCCCCCNc1nc(NCCCN2CCOCC2)nc(SCCCCCCC)n1 [Compound D8S7N15] | 2.8 |
| CCCCCCCCCCCCCCCCNc1nc(NCCCN2CCOCC2)nc(SCCCCCCC)n1 [Compound D8S7N16] | 1.2 |
| CCCCCCCCCCCCCCCCCCNc1nc(NCCCN2CCOCC2)nc(SCCCCCCC)n1 [Compound D8S7N18] | 3.0 |
| CCCCCCCSc1nc(NCCCN2CCOCC2)nc(SCCCCCCC)n1 [Compound D8S7S7] | 5.0 |
| CCCCCCCCSc1nc(NCCCN2CCOCC2)nc(SCCCCCCC)n1 [Compound D8S7S8] | 5.0 |
| CCCCCCCCCSc1nc(NCCCN2CCOCC2)nc(SCCCCCCC)n1 [Compound D8S7S9] | 18.6 |
| CCCCCCCCCCSc1nc(NCCCN2CCOCC2)nc(SCCCCCCC)n1 [Compound D8S7S10] | 11.4 |
| CCCCCCCCCCCSc1nc(NCCCN2CCOCC2)nc(SCCCCCCC)n1 [Compound D8S7S11] | 23.1 |
| CCCCCCCCCCCCSc1nc(NCCCN2CCOCC2)nc(SCCCCCCC)n1 [Compound D8S7S12] | 20.7 |
| CCCCCCCCCCCCCCSc1nc(NCCCN2CCOCC2)nc(SCCCCCCC)n1 [Compound D8S7S14] | 21.2 |
| CCCCCCCCCCCCCCCSc1nc(NCCCN2CCOCC2)nc(SCCCCCCC)n1 [Compound D8S7S15] | 25.2 |
| CCCCCCCCCCCCCCCCSc1nc(NCCCN2CCOCC2)nc(SCCCCCCC)n1 [Compound D8S7S16] | 22.7 |
| CCCCCCCCCCCCCCCCCCSc1nc(NCCCN2CCOCC2)nc(SCCCCCCC)n1 [Compound D8S7S18] | 26.7 |
| CCCCCCCCSc1nc(NCCCCCC)nc(NCCCN2CCOCC2)n1 [Compound D8S8N6] | 1.0 |
| CCCCCCCCSc1nc(NCCCCCCC)nc(NCCCN2CCOCC2)n1 [Compound D8S8N7] | 0.1 |
| CCCCCCCCNc1nc(NCCCN2CCOCC2)nc(SCCCCCCCC)n1 [Compound D8S8N8] | 1.3 |
| CCCCCCCCCNc1nc(NCCCN2CCOCC2)nc(SCCCCCCCC)n1 [Compound D8S8N9] | 3.5 |
| CCCCCCCCCCCNc1nc(NCCCN2CCOCC2)nc(SCCCCCCCC)n1 [Compound D8S8N11] | 7.9 |
| CCCCCCCCCCCCNc1nc(NCCCN2CCOCC2)nc(SCCCCCCCC)n1 [Compound D8S8N12] | 3.8 |

| Structure (SMILES) | Absolute mRNA transfection efficiency in HEK293 cells [%] |
| --- | --- |
| CCCCCCCCCCCCCNc1nc(NCCCN2CCOCC2)nc(SCCCCCCCC)n1 [Compound D8S8N13] | 1.5 |
| CCCCCCCCCCCCCCCNc1nc(NCCCN2CCOCC2)nc(SCCCCCCCC)n1 [Compound D8S8N15] | 4.6 |
| CCCCCCCCCCCCCCCCNc1nc(NCCCN2CCOCC2)nc(SCCCCCCCC)n1 [Compound D8S8N16] | 4.9 |
| CCCCCCCCCCCCCCCCCCNc1nc(NCCCN2CCOCC2)nc(SCCCCCCCC)n1 [Compound D8S8N18] | 1.2 |
| CCCCCCCCSc1nc(NCCCN2CCOCC2)nc(SCCCCCCCC)n1 [Compound D8S8S8] | 48.2 |
| CCCCCCCCCSc1nc(NCCCN2CCOCC2)nc(SCCCCCCCC)n1 [Compound D8S8S9] | 47.2 |
| CCCCCCCCCCSc1nc(NCCCN2CCOCC2)nc(SCCCCCCCC)n1 [Compound D8S8S10] | 40.9 |
| CCCCCCCCCCCSc1nc(NCCCN2CCOCC2)nc(SCCCCCCCC)n1 [Compound D8S8S11] | 22.2 |
| CCCCCCCCCCCCSc1nc(NCCCN2CCOCC2)nc(SCCCCCCCC)n1 [Compound D8S8S12] | 67.9 |
| CCCCCCCCCSc1nc(NCCCCCC)nc(NCCCN2CCOCC2)n1 [Compound D8S9N6] | 0.6 |
| CCCCCCCCCSc1nc(NCCCCCCC)nc(NCCCN2CCOCC2)n1 [Compound D8S9N7] | 2.2 |
| CCCCCCCCCSc1nc(NCCCCCCCC)nc(NCCCN2CCOCC2)n1 [Compound D8S9N8] | 5.7 |
| CCCCCCCCCNc1nc(NCCCN2CCOCC2)nc(SCCCCCCCCC)n1 [Compound D8S9N9] | 14.0 |
| CCCCCCCCCCCNc1nc(NCCCN2CCOCC2)nc(SCCCCCCCCC)n1 [Compound D8S9N11] | 23.5 |
| CCCCCCCCCCCCNc1nc(NCCCN2CCOCC2)nc(SCCCCCCCCC)n1 [Compound D8S9N12] | 11.2 |
| CCCCCCCCCCCCCNc1nc(NCCCN2CCOCC2)nc(SCCCCCCCCC)n1 [Compound D8S9N13] | 12.6 |
| CCCCCCCCCCCCCCCNc1nc(NCCCN2CCOCC2)nc(SCCCCCCCCC)n1 [Compound D8S9N15] | 7.2 |
| CCCCCCCCCCCCCCCCNc1nc(NCCCN2CCOCC2)nc(SCCCCCCCCC)n1 [Compound D8S9N16] | 2.1 |
| CCCCCCCCCCCCCCCCCCNc1nc(NCCCN2CCOCC2)nc(SCCCCCCCCC)n1 [Compound D8S9N18] | 1.9 |
| CCCCCCCCCCSc1nc(NCCCCCC)nc(NCCCN2CCOCC2)n1 [Compound D8S10N6] | 0.2 |
| CCCCCCCCCCSc1nc(NCCCCCCC)nc(NCCCN2CCOCC2)n1 [Compound D8S10N7] | 0.6 |
| CCCCCCCCCCSc1nc(NCCCCCCCC)nc(NCCCN2CCOCC2)n1 [Compound D8S10N8] | 0.4 |

— patent publication US20230123334A1, “AMINO LIPID COMPOUND, PREPARATION METHOD THEREFOR, AND APPLICATION THEREOF” (SHENZHEN SHENXIN BIOTECHNOLOGY CO., LTD., priority 2020, published 2023)
